Reference: ChEMBL document CHEMBL1144736, “Novel inhibitors of 17beta-hydroxysteroid dehydrogenase type 1: templates for design” (Bioorg Med Chem, 2008)
The source made the active and inactive calls. The calls are words filed in the database; no cut-off is given here.

Tests used:
Assay type in all cases: cell-based
[1] = biological target: T1, 17-beta-hydroxysteroid dehydrogenase type 1 (Homo sapiens) (UniProt P14061); test: Inhibition of 17beta-HSD1 expressed in intact human T47D cells at 10 uM after 30 mins
T1 sequence (whole entry): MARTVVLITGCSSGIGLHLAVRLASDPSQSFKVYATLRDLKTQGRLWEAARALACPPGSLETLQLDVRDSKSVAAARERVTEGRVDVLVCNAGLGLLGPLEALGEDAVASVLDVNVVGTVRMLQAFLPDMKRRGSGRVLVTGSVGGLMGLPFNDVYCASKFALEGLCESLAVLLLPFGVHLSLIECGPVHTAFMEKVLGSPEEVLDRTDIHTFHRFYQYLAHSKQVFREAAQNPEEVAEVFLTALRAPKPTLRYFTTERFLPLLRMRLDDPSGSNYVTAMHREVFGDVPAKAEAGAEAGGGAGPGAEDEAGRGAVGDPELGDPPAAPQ

[2] = biological target: T2, 17-beta-hydroxysteroid dehydrogenase type 1 (Homo sapiens, UniProt P14061); test: Inhibition of 17beta-HSD1 expressed in intact human T47D cells after 30 mins
T2 sequence (P14061 whole entry): T1 sequence (whole entry)

[3] = biological target: T3, 17-beta-hydroxysteroid dehydrogenase type 2 (Homo sapiens) (UniProt P37059); test: Inhibition of 17beta-HSD2 expressed in intact human MDA-MB-231 cells at 10 uM after 3 hrs
T3 sequence (whole entry): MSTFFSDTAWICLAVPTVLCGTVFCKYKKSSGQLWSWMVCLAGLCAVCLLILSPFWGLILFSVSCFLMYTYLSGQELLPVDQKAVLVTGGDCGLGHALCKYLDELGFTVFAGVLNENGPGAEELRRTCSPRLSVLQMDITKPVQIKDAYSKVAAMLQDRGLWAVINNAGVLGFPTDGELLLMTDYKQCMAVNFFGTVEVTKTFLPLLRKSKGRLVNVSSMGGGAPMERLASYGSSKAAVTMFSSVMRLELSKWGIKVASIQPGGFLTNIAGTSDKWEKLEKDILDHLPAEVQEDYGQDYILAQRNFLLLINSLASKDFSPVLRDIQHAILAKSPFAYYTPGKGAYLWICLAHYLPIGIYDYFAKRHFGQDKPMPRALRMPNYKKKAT

[4] = biological target: T1, 17-beta-hydroxysteroid dehydrogenase type 1 (Homo sapiens); test: Inhibition of 17beta-HSD1 expressed in intact human T47D cells at 1 uM after 30 mins

Row | Structure (SMILES) | Activity [1] | IC50 [2] | inhibition [1] | other results
1 | COc1ccc2c(c1)Cc1cc(C(C)=O)ccc1-2 | inactive | – | – | –
2 | CCc1cc(-c2ccc(C(=O)CCC(=O)NCc3cccnc3)cc2)ccc1O | – | 3.7 µM | – | inhibition [4]: 24%; inhibition [3]: 12%
3 | CCc1cc(-c2ccc(C(=O)CCC(=O)NCCc3cccnc3)c(C)c2)ccc1O | – | – | – | inhibition [4]: 15%
4 | CCc1cc(-c2ccc(C(=O)CCC(=O)NCCO)cc2)ccc1O | – | – | – | inhibition [4]: 23%
5 | COc1ccc(-c2ccc(C(C)=O)cc2)c(C)c1 | inactive | – | – | –
6 | CC(=O)c1ccc(-c2ccc(O)cc2)c(C)c1 | inactive | – | – | –
7 | CC(=O)c1ccc2c(c1)Cc1cc(O)ccc1-2 | – | 4.8 µM | 86% | –
8 | CCc1cc(-c2ccc3c(c2)CC(CC(=O)NCc2cccnc2)C3=O)ccc1O (stereo not drawn) | – | 4.7 µM | – | inhibition [4]: 39%
9 | CCc1cc(-c2ccc3c(c2)CC(CC(=O)NCc2cnc(C)cn2)C3=O)ccc1O (stereo not drawn) | – | – | – | Activity [4]: inactive
10 | COc1ccc(-c2ccc(C(C)=O)cc2C)cc1 | inactive | – | – | –
11 | CC(=O)c1ccc(-c2ccc(O)cc2C)cc1 | – | 3.7 µM | – | –
12 | CCc1cc(-c2ccc(C(=O)CCC(=O)NCCc3cccnc3)cc2)ccc1O | – | – | – | inhibition [4]: 17%
13 | CCc1cc(-c2ccc(C(=O)CCC(=O)NCc3cccnc3)c(C)c2)ccc1O | – | – | – | inhibition [4]: 21%
14 | CCc1cc(-c2ccc(C(C)=O)cc2)ccc1O | – | 5.4 µM | 73% | inhibition [3]: 51%
15 | CCc1cc(-c2ccc(C(=O)CC(C)(C)C(=O)NCc3cccnc3)cc2)ccc1OC | – | – | – | inhibition [4]: 17%
16 | COc1ccc(-c2ccc(C(C)=O)cc2)cc1 | inactive | – | – | –
17 | CCc1cc(-c2ccc(C(=O)CCC(=O)NCc3ccccn3)cc2)ccc1O | – | – | – | Activity [4]: inactive
18 | CCc1cc(-c2ccc3c(c2)CC(CC(=O)NCc2ccccn2)C3=O)ccc1O (stereo not drawn) | – | – | – | Activity [4]: inactive
19 | CCc1cc(-c2ccc(O)cc2)ccc1C(C)=O | – | 9.9 µM | 71% | –
20 | CCc1cc2c(cc1O)CC[C@@H]1[C@@H]2CC[C@]2(C)C(=O)[C@@H](CC(=O)NCc3cccnc3)C[C@@H]12 | – | 0.027 µM | – | –
21 | CC(=O)c1ccc(-c2ccc3c(c2)OCO3)cc1 | inactive | – | – | –
22 | CCc1cc(-c2ccc(C(C)=O)cc2)ccc1OC | inactive | – | – | –
23 | CCc1cc(-c2ccc(C(=O)CC(C)(C)C(=O)NCCc3cccnc3)cc2)ccc1O | – | – | – | inhibition [4]: 15%
24 | CC(=O)c1ccc(-c2ccc(O)cc2)cc1 | – | 3.7 µM | 97% | –
25 | CCc1cc(-c2ccc(C(=O)CC(C)(C)C(=O)NCc3cccnc3)cc2)ccc1O | – | 1.8 µM | – | inhibition [4]: 38%

Further lines, with some results ahead:

Row | Activity [1] | IC50 [2] | inhibition [1] | Structure (SMILES) | other results
26 | inactive | – | – | COc1ccc(-c2ccc3c(c2)CCCC3=O)cc1 | –
27 | – | 1.7 µM | 81% | O=C1CCc2cc(-c3ccc(O)cc3)ccc21 | inhibition [3]: 17%
28 | inactive | – | – | O=C1CCc2cc(-c3ccccc3)ccc21 | –
29 | – | 8.3 µM | 71% | CCc1cc(-c2ccc3c(c2)CCCC3=O)ccc1OC | –
30 | – | 2 µM | 86% | CCc1cc(-c2ccc3c(c2)CCC3=O)ccc1O | inhibition [3]: 48%
31 | – | 2.9 µM | 75% | O=C1CCc2cc(-c3ccc(O)c(F)c3)ccc21 | inhibition [3]: 24%
32 | – | – | 51% | CCc1cc(-c2ccc3c(c2)CCCC3=O)ccc1O | –
33 | inactive | – | – | CCc1cc(-c2ccc3c(c2)CCC3=O)ccc1OC | –
34 | inactive | – | – | COc1ccc(-c2ccc3c(c2)CCC3=O)cc1 | –
35 | – | – | 56% | COc1ccc(-c2ccc3c(c2)CCC3=O)cc1F | –
36 | – | 15.6 µM | 89% | O=C1CCCc2cc(-c3ccc(O)cc3)ccc21 | –
